Assay results: patent US8586611B2 (priority 2005, dated 2013)

Columns and labels:
Format in all cases: in vivo
Phytophthora infestans [1] = assay: whole plant or invertebrate; conditions: tomato late blight
[2] = test system: Erysiphe graminis f. sp. tritici; assay: Test E: wheat powdery mildew, spray the day before inoculation (disease rating, 100 = 100% disease control)
Procedure, shortened: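 Protective test: spores of E. graminis f. sp. tritici dusted on wheat seedlings one day after run-off spraying of test suspension (acetone/water with 250 ppm surfactant; 200 ppm = 500 g/ha). Ratings after 7 days in growth chamber at 20° C, 100 = full control, 0 = none, relative to controls.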

Phytophthora infestans [3] = assay: whole plant or invertebrate; conditions: tomato late blight; remark: listed apart in the source
Plasmopara viticola = assay: Test B: grape downy mildew, spray 24 h after inoculation (disease rating, 100 = 100% disease control)
Procedure, shortened: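 This is a curative spray test, applied 24 h after inoculation. Compounds in 50/50 acetone–water with 250 ppm Trem 014 surfactant were sprayed to run-off on P. viticola-infected seedlings, with 200 ppm equating to 500 g/ha. Plants were kept 5 days in a 20 °C growth chamber, then 24 h humid, and scored 0–100 for disease control relative to controls.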

[4] = spray 17 h after inoculation, tested at 40 ppm
[5] = spray the day before inoculation, tested at 40 ppm
[6] = spray 24 h after inoculation, tested at 40 ppm
[7] = spray 17 h after inoculation, compounds without asterisk (not 40 or 10 ppm)
[8] = spray the day before inoculation, compounds without asterisk (not 40 or 10 ppm)
[9] = spray 24 h after inoculation, compounds without asterisk (not 40 or 10 ppm)
[10] = sprayed 17 h after inoculation, unmarked compounds (no asterisk, not 40 or 10 ppm)
[11] = sprayed the day before inoculation, 7 days at 20° C., unmarked compounds (no asterisk, not 40 or 10 ppm)
[12] = sprayed the day before inoculation, unmarked compounds (no asterisk, not 40 or 10 ppm)
[13] = sprayed 24 h after inoculation, unmarked compounds (no asterisk, not 40 or 10 ppm)

| SMILES | Test D disease rating (100 = 100% disease control, 0 = no disease control) (Phytophthora infestans [1]; [7]) | Test E disease rating (100 = 100% disease control, 0 = no disease control) [2, 8] | Test C disease rating (100 = 100% disease control, 0 = no disease control) (Phytophthora infestans [3]; [8]) | Test B disease rating (100 = 100% disease control, 0 = no disease control) (Plasmopara viticola; [9]) | Test D disease rating (100 = 100% disease control, 0 = no disease control) (Phytophthora infestans [1]; [10]) | Test E disease rating (100 = 100% disease control, 0 = no disease control) [2, 11] | Test C disease rating (100 = 100% disease control, 0 = no disease control) (Phytophthora infestans [3]; [12]) | Test B disease rating (100 = 100% disease control, 0 = no disease control) (Plasmopara viticola; [13]) | further results |
| --- | --- | --- | --- | --- | --- | --- | --- | --- | --- |
| Cc1cc(C(F)(F)F)nn1CC(=O)N1CCC(c2nc(C(=O)N(C)C3c4ccccc4CC3O)cs2)CC1 (racemic) [compound 200] | – | – | – | – | – | – | – | – | Test D disease rating (100 = 100% disease control, 0 = no disease control) (Phytophthora infestans [1]; [4]): 98%; Test E disease rating (100 = 100% disease control, 0 = no disease control) [2, 5]: 0%; Test C disease rating (100 = 100% disease control, 0 = no disease control) (Phytophthora infestans [3]; [5]): 98%; Test B disease rating (100 = 100% disease control, 0 = no disease control) (Plasmopara viticola; [6]): 39% |
| Cc1cc(C(F)(F)F)nn1CC(=O)N1CCCN(c2nc(C(=O)N(C)[C@@H]3CCCc4ccccc43)cs2)CC1.Cl [compound 242] | 73% | 0% | 100% | 16% | – | – | – | – | – |
| C[C@H](c1ccccc1)N(C)C(=O)c1csc(C2CCN(C(=O)Cc3cc(C(C)(C)C)no3)CC2)n1 [compound 93] | 0% | 0% | 26% | 9% | – | – | – | – | – |
| Cc1cc(C(F)(F)F)nn1CC(=O)N1CCC(c2noc(C(=O)N(C)[C@H](C)c3ccccc3)n2)CC1 [compound 216] | 16% | 0% | 95% | 72% | – | – | – | – | – |
| Cc1cc(C(F)(F)F)nn1CC(=O)N1CCC(c2nc(C(=O)N3CCCC(C)C3)cs2)CC1 (stereo not shown) [compound 312] | – | – | – | – | 80 | 0 | 100 | 91 | – |
| Cc1cccc(CC(=O)N2CCC(c3nc(C(=O)N(C)Cc4cccnc4)cs3)CC2)c1 [compound 164] | 0% | 0% | 60% | 1% | – | – | – | – | – |
| Cc1cc(C(F)(F)F)nn1CC(=O)N1C=CC(c2nc(C(=O)N(C)[C@@H]3CCCc4ccccc43)cs2)CC1 (stereo partly drawn) [Compound 315, N-methyl-2-[1,2,3,4-tetrahydro-1-[[5-methyl-3-(trifluoromethyl)-1H-pyrazol-1-yl]acetyl]-4-pyridinyl]-N-[(1R)-1,2,3,4-tetrahydro-1-naphthalenyl]-4-thiazolecarboxamide] | – | – | – | – | – | – | – | – | Test D disease rating (100 = 100% disease control, 0 = no disease control) (Phytophthora infestans [1]; sprayed 17 h after inoculation, tested at 10 ppm (**)): 88; Test E disease rating (100 = 100% disease control, 0 = no disease control) ([2]; sprayed the day before inoculation, 7 days at 20° C., tested at 10 ppm (**)): 0; Test C disease rating (100 = 100% disease control, 0 = no disease control) (Phytophthora infestans [3]; sprayed the day before inoculation, tested at 10 ppm (**)): 100; Test B disease rating (100 = 100% disease control, 0 = no disease control) (Plasmopara viticola; sprayed 24 h after inoculation, tested at 10 ppm (**)): 72 |
| C[C@@H](NC(=O)c1csc(C2CCN(C(=O)Cc3cccc(Br)c3)CC2)n1)c1ccc(F)cc1 [compound 271] | – | – | – | – | 0 | 0 | 67 | 7 | – |
| C[C@@H](NC(=O)c1csc(C2CCN(C(=O)Cc3cccc(Br)c3)CC2)n1)c1cccc(C(F)(F)F)c1 [compound 277] | – | – | – | – | 0 | 0 | 9 | 15 | – |
| CN(Cc1cccnc1)C(=O)c1csc(C2CCN(C(=O)Cc3cccc(C(F)(F)F)c3)CC2)n1 [compound 163] | 0% | 0% | 55% | 24% | – | – | – | – | – |
| Cc1cc(C(F)(F)F)nn1CC(=O)N1CCC(c2nc(C(=O)N3CCc4ccccc4C3)cs2)CC1 [compound 296] | – | – | – | – | 93 | 0 | 100 | 82 | – |
| CC(c1ccncc1)N(C)C(=O)c1csc(C2CCN(C(=O)Cc3cccc(C(F)(F)F)c3)CC2)n1 (stereo not shown) [compound 76] | 0% | 0% | 79% | 0% | – | – | – | – | – |
| COc1cccc2c1CCCC2N(C)C(=O)c1csc(C2CCN(C(=O)Cn3nc(C(F)(F)F)cc3C)CC2)n1 (stereo not shown) [compound 196] | – | – | – | – | – | – | – | – | Test D disease rating (100 = 100% disease control, 0 = no disease control) (Phytophthora infestans [1]; [4]): 99%; Test E disease rating (100 = 100% disease control, 0 = no disease control) [2, 5]: 0%; Test C disease rating (100 = 100% disease control, 0 = no disease control) (Phytophthora infestans [3]; [5]): 100%; Test B disease rating (100 = 100% disease control, 0 = no disease control) (Plasmopara viticola; [6]): 97% |
| Cc1ccc(C)c(CC(=O)N2CCC(c3nc(C(=O)N(C)[C@H](C)c4ncc(Cl)cc4Cl)cs3)CC2)c1 [compound 111] | 37% | 98% | 99% | 96% | – | – | – | – | – |
| Cc1cc(C(F)(F)F)nn1CC(=O)N1CCC(c2nc(C(=O)N3CCCC3c3ccc(Cl)cc3)cs2)CC1 (stereo not shown) [compound 290] | – | – | – | – | 26 | 0 | 90 | 0 | – |
| Cc1ccc(C)c(CC(=O)N2CCC(c3nc(C(=O)N(C)[C@H]4CCc5ccccc54)cs3)CC2)c1 [compound 131] | 62% | 0% | 55% | 77% | – | – | – | – | – |
| C[C@@H](NC(=O)c1csc(C2CCN(C(=O)Cc3cccc(Br)c3)CC2)n1)c1ccc([N+](=O)[O-])cc1 [compound 273] | – | – | – | – | 0 | 0 | 0 | 44 | – |
| Cc1ccc(C)c(CC(=O)N2CCC(c3nc(C(=O)N(C)C4CCCc5occc54)cs3)CC2)c1 (stereo not shown) [compound 135] | 47% | 0% | 51% | 16% | – | – | – | – | – |
| C[C@H](c1ccccc1)N(C)C(=O)c1csc(C2CCN(C(=O)Cn3cnc(C4CCCCC4)n3)CC2)n1 [compound 140] | 0% | 0% | 0% | 0% | – | – | – | – | – |
| C[C@H](c1ccccc1)N(C)C(=O)c1csc(C2CCN(C(=O)Cc3ccncc3)CC2)n1 [compound 84] | 0% | 0% | 44% | 41% | – | – | – | – | – |
| CCCN(C(=O)c1csc(C2CCN(C(=O)Cc3cc(C)ccc3C)CC2)n1)[C@H](C)c1ccccc1 [compound 287] | – | – | – | – | 0 | 0 | 50 | 0 | – |
| Cc1cc(C(F)(F)F)nn1CC(=O)N1CCC(c2nc(C(=O)N(C)[C@H](C(=O)O)c3ccccc3)cs2)CC1 [compound 245] | 0% | 0% | 47% | 0% | – | – | – | – | – |
| Cc1cc(C(F)(F)F)nn1CC(=O)N1CCC(c2nc(C(=O)NCCc3ccccc3)cs2)CC1 [compound 314] | – | – | – | – | 99 | 0 | 100 | 98 | – |
| CC(=O)OC1CCC(N(C)C(=O)c2csc(C3CCN(C(=O)Cn4nc(C(F)(F)F)cc4C)CC3)n2)c2ccccc21 (stereo not shown) [compound 212] | – | – | – | – | – | – | – | – | Test D disease rating (100 = 100% disease control, 0 = no disease control) (Phytophthora infestans [1]; [4]): 99%; Test E disease rating (100 = 100% disease control, 0 = no disease control) [2, 5]: 0%; Test C disease rating (100 = 100% disease control, 0 = no disease control) (Phytophthora infestans [3]; [5]): 100%; Test B disease rating (100 = 100% disease control, 0 = no disease control) (Plasmopara viticola; [6]): 97% |
| C=CCN(C(=O)c1csc(C2CCN(C(=O)Cc3cc(C)ccc3C)CC2)n1)[C@H](C)c1ccccc1 [compound 284] | – | – | – | – | 0 | 0 | 21 | 10 | – |
